Data: US8853227B2, “Methotrexate adjuvants to reduce toxicity and methods for using the same” (Tosk, Incorporated, priority 2008, dated 2014)

How the values were obtained:
CCRF-CEM cells = assay: Cell Culture Study I (MTX cytotoxicity, alamarBlue); format: cell-based, human; details: 72 hours
Procedure: In this study, CCRF-CEM cells purchased from ATCC were cultured and then 12 tubes containing approximately 10^6 cells each treated for 72 hours with media (Group1), MTX 0.03 μM (Group2), MTX+Leucovorin 1 μM (Group3), MTX+Leucovorin 10 μM (Group4), MTX+Leucovorin 100 μM (GroupS), MTX+TK-112690 1 μM (Group6), MTX+TK-112690 10 μM (Group7) and MTX+TK-112690 100 μM (Group8). […] Viability was measured as percent reduction of alamarBlue absorbance.
The tumor cell line CCR-CEM (human T-cell acute lymphoblastic leukemia) is obtained from American Type Culture Collection (CRL-1593.2) and cultured in accordance with the product information sheet with the following exceptions: 55.3 cm^2 Petri dishes are used instead of 75 cm^2 culture flasks, and 1% penicillin-streptomycin solution (HyClone SV30010) and 1% GlutaMAX™ (Gibco 35050) are added to the culture medium.
TK-112690, the representative 2,2′-anhydropyrimidine test article, is dissolved in 40% DMSO, sterile filtered then diluted with sterile distilled water to obtain initial working solutions of 10, 100 and 1000 μM. In testing, a 100 fold dilution is made in culture media to give final assay concentrations of 0.1, 1.0 and 10.0 μM. MTX (SAFC Biosciences M8407) is dissolved in sterile distilled water and 5 N NaOH then sterile filtered. The final pH of the stock solution is 7.8 and working solutions are made with sterile distilled water for final assay concentrations of 30, 3.0, 0.3, 0.03 and 0.003 μM. Leucovorin (Sigma F-7878) is dissolved in sterile distilled water, sterile filtered and diluted with sterile distilled water for final assay concentrations of 0.1, 1.0 and 10.0 μM.
Aliquots of 100 μL of cell suspension are plated in 96 well microtiter plates (Corning costar 3595) and placed in an atmosphere of 5% CO2 at 37° C. (Fisher Scientific Isotemp 3500 CO2 Incubator). After 24 hours, 100 μL of growth medium [RPMI-1640 w/L-glutamine (Cambrex 12-702Q) fortified with sodium pyruvate (HyClone SH30239.01), fetal bovine serum (SAFC Biosciences 12107C) and HEPES buffer (Gibco 15630)] and 2 μL of test solution or vehicle are added respectively per well and the plates incubated for an additional 72 hour incubation. MTX is evaluated at concentrations of 0.003, 0.03, 0.30 and 3.0 μM alone or in combination with either a 2,2′-anhydropyrimidine test article or Leucovorin at concentrations of 0.1, 1.0, 10.0 μM. At the end of incubation, the efficacy of anti-cell proliferation is determined by optical absorbance at A=570 and 600 nm [Spectramax 250 (Molecular Devices)] in accordance with the standard alamarBlue™ (Biosource) protocol.
Group 1 is the cell control (media treated). Group 2 corresponds to cells treated with 0.03 μM MTX. Group 3 are cells treated with 1.0 μM Leucovorin. Group 4 are cells treated with 0.1 μM Leucovorin. […]

Drosophila melanogaster = assay: Fly Study I (protection from MTX-induced lethality); format: in vivo; details: for Flies Alive (Number): Fly Study I method, test compound + MTX (MTX Alone: no adjuvant), Table 3
Procedure: In this study, Drosophila melanogaster eggs (50 eggs per vial) were treated with either 0.005 mg TK-112690+0.4 mg MTX (Group 1), 0.01 mg TK-112690+0.4 mg MTX (Group 2), 0.04 mg TK-112690+0.4 mg MTX (Group 3), 0.1 mg TK-112690+0.4 mg MTX (Group 4), 0.4 mg MTX alone (Group 5) or saline blank (Group 6). Two vials of eggs for each dose group were evaluated for viability (viable flies plus pupae).
The efficacy of cancer chemotherapy can be improved if agents are available to reduce the adverse events associated with treatment with cytotoxic agents. To this end, Drosophila melanogaster (commonly know as the fruit fly) is an ideal organism to screen chemical compounds for such side-effect-reducing agents. This study is aimed at finding a dose of a 2,2′-anhydropyrimidine test article that protects against MTX-induced lethality in insects.
Increasing amounts of a 2,2′-anhydropyrimidine test article (typically 0.03 to 0.1 mg) are mixed in an aqueous solution with 0.3 (or 0.4) mg MTX. Four milliliters (mL) of a 2,2′-anhydropyrimidine test article+MTX solutions are added to an appropriate amount of instant fly medium. Fruit fly eggs are added to a 2,2′-anhydropyrimidine test article+MTX treated medium and incubated for up to 31 days. After the 31 day incubation, each assay is scored by the number of mature fly and pupae per vial.
The assays are set up in clear sterile polystyrene narrow diameter vials from Applied Scientific (Hampton, N.H.). Vials are stored in trays and incubated in a darkened 25° C. incubator.
Reagents and materials used are: 50 mg/mL MTX in H2O (pH 8), 20 mg/mL of the 2,2′-anhydropyrimidine test article in H2O, water, sterile polystyrene narrow diameter vials from Applied Scientific, Instant Drosophila Food Medium, Oregon-R Drosophila melanogaster, 25° C. incubator, and 15 mL polystyrene conical tubes
Each assay is performed in a separate fly vial. Increasing amounts of a 2,2′-anhydropyrimidine (0.005 to 1.0 mg) are tested for MTX side-effect-reduction on fly eggs. Amounts of the 2,2′-anhydropyrimidine test article are drawn from a 20 mg/mL stock solution dissolved in water. Nine mL of the 2,2′-anhydropyrimidine+0.3 (or 0.4) mg MTX solutions are pre-mixed with water in a 15 mL conical tube. Duplicate assays receive 4 mL of the 2,2′-anhydropyrimidine test article+0.3 (or 0.4) mg MTX solutions. Pre-measured amounts of instant drosophila medium are added to each assay to achieve optimal hydration level. Controls are (1) 4 mL water alone and (2) 0.3 (or 0.4) mg MTX alone. Precisely 50 fly eggs aged for ˜18 hours are added to each assay. Assays are capped with a fitted plug and incubated for 30 days in a darkened 25° C. incubator. Assays are scored by the number of dead pupae or adult flies per vial.

Row | Compound | Flies Alive (Number) (Drosophila melanogaster) | further results
1 | Nc1nc2c(c(=O)[nH]1)N(C=O)C(CNc1ccc(C(=O)N[C@@H](CCC(=O)O)C(=O)O)cc1)CN2 (some centres unmarked) [Leucovorin, reference compound] |  | cell viability, Leucovorin+MTX versus MTX alone (protection by positive control) (CCRF-CEM cells; 0.03 μM MTX + Leucovorin, p<0.000 and 0.002): statistically different; cell viability, test article alone versus control (CCRF-CEM cells; without MTX): not statistically different than control
2 | O=c1nc2n(cc1COCc1ccccc1)[C@@H]1O[C@H](CO)[C@@H](O)[C@@H]1O2 [TK-000008] | 0 | 
3 | Cc1cn2c(nc1=O)O[C@H]1[C@H](O)[C@@H](CN=[N+]=[N-])O[C@H]12 [TK-000011] | 0 | 
4 | CCOCc1cn2c(nc1=O)O[C@H]1[C@H](O)[C@@H](CO)O[C@H]12 [TK-000007] | 3 | 
5 | Cc1cn2c(nc1=O)O[C@H]1C(O)[C@@H](CF)O[C@H]12 (some centres unmarked) [TK-000015] | 0 | 
6 | O=c1nc2n(cc1NCc1ccccc1)[C@@H]1O[C@H](CO)[C@@H](O)[C@@H]1O2 [TK-000006] | 0 | 
7 | CC(=N)OCc1cn2c(nc1=O)O[C@H]1[C@H](O)[C@@H](CO)O[C@H]12 [TK-000010] | 0 | 
8 | COCc1cn2c(nc1=O)O[C@H]1[C@H](O)[C@@H](CO)O[C@H]12 [TK-000009] | 5 | activity in the Fly model for protection against MTX-induced lethality (Drosophila melanogaster): active
9 | Cc1ccc(SCc2cn3c(nc2=O)O[C@H]2C(O)[C@@H](CO)O[C@H]23)cc1 (some centres unmarked) [TK-000016] | 0 | 
